ChEMBL document CHEMBL1130718, “(2Z,4E)-5-(5,6-dichloro-2-indolyl)-2-methoxy-N-(1,2,2,6,6- pentamethylpiperidin-4-yl)-2,4-pentadienamide, a novel, potent and selective inhibitor of the osteoclast V-ATPase” (Bioorg Med Chem Lett, 1998)

Legend:
[1] = Compound selectivity was assessed using vacuolar type proton ATPase from human kidney cortex (hK)
[2] = Compound selectivity was assessed using vacuolar type proton ATPase from human kidney cortex(hK)
[3] = Compound selectivity was assessed using vacuolar type proton ATPase from chicken adrenal glands (cAG); type: tissue-based, Adrenal gland
Homo sapiens [4] = species on record: Homo sapiens; experiment: In vitro human osteoclast activity for bone resorption was assessed by ELISA assay; type: functional
Homo sapiens [5] = species on record: Homo sapiens; experiment: Ability to inhibit bone resorption in human osteoclast obtained from giant cell tumors of bone; type: functional

| IC50 [1] [µM] | IC50 [2] [µM] | IC50 [3] [µM] | IC50 (Homo sapiens [4]) [µM] | IC50 (Homo sapiens [5]) [µM] | SMILES |
| --- | --- | --- | --- | --- | --- |
| 2.5 |  |  |  |  | CO/C(=C\C=C/c1cc2cc(Cl)c(Cl)cc2[nH]1)C(=O)NC1CC(C)(C)N(C)C(C)(C)C1 |
|  | 6.33 |  |  |  | CO/C(=C/C=C/c1cc2cc(Cl)c(Cl)cc2[nH]1)C(=O)NC1CC(C)(C)N(C)C(C)(C)C1 |
| 0.158 |  | 0.125 | 0.0034 | 0.0135 | CO/C(=C\C=C\c1cc2cc(Cl)c(Cl)cc2[nH]1)C(=O)NC1CC(C)(C)N(C)C(C)(C)C1 |
